# Laboratory results from US11311568B2, “Therapeutic pharmaceutical composition for cancer including miRNA” (Purmx Therapeutics, Inc., priority 2017, dated 2022).
# How the values were obtained:
# [1] = system: malignant pleural mesothelioma cell strain EHMES-10; experiment: Cell growth inhibition, cell count after transfection; type: cell-based; conditions: EHMES-10, final concentration 10 nM, four days after transfection, FIG. 7
# Experimental: (§1) Among the above four miRNAs, miR-3140-3p which had particularly high cell growth inhibition effect was transfected in each of malignant pleural mesothelioma cell strains (MSTO-211H and EHMES-10), uterine sarcoma cell strain (MES-SA), and osteosarcoma cell strain (U2-OS), and cell proliferation was observed. […] Transfection was carried out with the following protocol.
# (§2) 1: To a 35 mm dish were added 500 μL of serum free medium (SFM) and 5 μL of RNAiMAX (Invitrogen).
# (§3) 2: To the solution from 1 was added 1 μL each of miR-Control or miR-3140-3p, miR-22-3p, and miR-34a-5p (stock conc. 20 μM) (final concentration 10 nM).
# (§4) 3: This was incubated at room temperature for 20 minutes.
# (§5) 4: 1.5 mL of a cell suspension diluted to 6.7×10^4 cells/mL was added to the 35 mm dish.
# (§6) 5: This was incubated at 37° C. under 5% CO2 condition.
# (§7) 6: The cells were counted four days after transfection.
# [2] = system: osteosarcoma cell strain U2-OS; experiment: as above; type: cell-based; conditions: final concentration 10 nM, four days after transfection, FIG. 9
# Experimental: as §1, §2, §3, §4, §5, §6, §7
# [3] = system: malignant pleural mesothelioma cell strain MSTO-211H; experiment: as above; type: cell-based; conditions: final concentration 10 nM, four days after transfection, FIG. 6
# Experimental: as §1, §2, §3, §4, §5, §6, §7
# [4] = system: uterine sarcoma cell strain MES-SA; experiment: as above; type: cell-based; conditions: final concentration 10 nM, four days after transfection, FIG. 8
# Experimental: as §1, §2, §3, §4, §5, §6, §7
# [5] = system: malignant pleural mesothelioma cell strain EHMES-10; experiment: Comparison of antitumor effect with cisplatin in vivo, pleural cavity transplantation; design: species or system mice (C-B-17/Icr-scid/scid Jcl); conditions: miRNA/A6K in pleural cavity versus cisplatin 6 mg/kg intraperitoneal, EHMES-10 in pleural cavity, FIGS. 30-33
# From the text: In order to investigate the relative superiority of antitumor effect of miR-3140-3p, the tumor suppression effect of cisplatin which is the first-line drug of malignant pleural mesothelioma and the tumor suppression effect of miR-3140-3p were compared in vivo.
# Six weeks-old male mice (C-B-17/Icr-scid/scid Jcl) were used as mice. Malignant pleural mesothelioma cell strain EHMES-10 which expresses the luciferase gene was used as the tumor cell.
# The protocol is shown below.
# 1: Mice were intraperitoneally administered 0.1 mL per 10 g of body weight of a mixed anesthetic drug of medetomidine hydrochloride, midazolam, and butorphanol tartrate.
# 2: After anesthesia, mouse chest hair was shaved, and an incision was made in the epidermis with scissors.
# 3: In the mouse pleural cavity 100 μL of tumor cells (3×10^7 cells/mL) was transplanted with a 27 G syringe for insulin.
# 4: Four days after transplantation, imaging of tumor cells was performed with IVIS Spectrum CT In vivo Imaging System.
# 5: After imaging, grouping was performed with successfully transplanted mice.
# 6: Mice were intraperitoneally administered 0.1 mL per 10 g of body weight of a mixed anesthetic drug of medetomidine hydrochloride, midazolam, and butorphanol tartrate to anesthetize the mice. […]
# [6] = system: large intestine cancer cell strain HCT116 (p53 wildtype); experiment: Screening in cancer cell strains, cell survival rate with PrestoBlue; type: cell-based; conditions: Day 5 after transfection with RNAiMAX, compared with miR-34a-5p
# Experimental: (§8) The 349 types of aging induction miRNA (mirVana; Ambion) obtained from screening were transfected into various cancer cell strains (large intestine cancer cell strain HCT116 (p53 wildtype and p53 deletion), pancreatic cancer cell strains BxPC-3 and CFPAC-1, and tongue cancer cell strain HSC-4) with an auto dispenser Bravo (Agilent).
# (§9) Transfection was carried out with the following protocol.
# (§10) 1: To 70 μL of serum free medium (SFM) was added 0.35 μL of RNAiMAX (Invitrogen).
# (§11) 2: The solution from 1 was added to a 96-well plate (μ-plate; ibidi) with Bravo.
# (§12) 3: To 2 was added 0.7 μL of miRNA (Stock Conc. 200 nM) with Bravo, and this was mixed by pipetting.
# (§13) 4: This was incubated at room temperature for 20 minutes.
# (§14) 5: A cell suspension diluted to 3.5×10^4 cells/mL was dispensed at 70 μL each with Bravo.
# (§15) 6: This was incubated at 37° C. under 5% CO2 condition.
# (§16) Setting the day of transfection as Day 0, on Day 5 the cell survival rate was evaluated with PrestoBlue (Invitrogen). The operating protocol is shown below.
# (§17) 1. The medium was exchanged to a medium comprising PrestoBlue diluted 20-folds, and this was incubated at 37° C. for 1 hour. 2. The fluorescence value (Ex/Em=560 nm/590 nm) was measured with Enspire (Perkin Elmer).
# (§18) 3. The cell survival rate was determined by setting the fluorescence value obtained from the well with only the reagent as the background.
# [7] = system: large intestine cancer cell strain HCT116 (p53 deletion); experiment: as above; type: cell-based; conditions: Day 5 after transfection with RNAiMAX, compared with miR-34a-5p
# Experimental: as §8, §9, §10, §11, §12, §13, §14, §15, §16, §17, §18
# [8] = system: tongue cancer cell strain HSC-4; experiment: as above; type: cell-based; conditions: HSC-4, Day 5 after transfection with RNAiMAX, compared with miR-34a-5p
# Experimental: as §8, §9, §10, §11, §12, §13, §14, §15, §16, §17, §18
# [9] = system: pancreatic cancer cell strain BxPC-3; experiment: as above; type: cell-based; conditions: BxPC-3, Day 5 after transfection with RNAiMAX, compared with miR-34a-5p
# Experimental: as §8, §9, §10, §11, §12, §13, §14, §15, §16, §17, §18
# [10] = system: pancreatic cancer cell strain CFPAC-1; experiment: as above; type: cell-based; conditions: CFPAC-1, Day 5 after transfection with RNAiMAX, compared with miR-34a-5p
# Experimental: as §8, §9, §10, §11, §12, §13, §14, §15, §16, §17, §18
substance,measurement,setting,value
"miR-3140-3p: Mature-miRNA, AGCUUUUGGGAAUUCAGGUAGU (SEQ ID NO. 2) (listed as RNA, chemistry not given here; listed as Homo sapiens)",cell growth inhibition effect (cell count),[1],extremely high cell growth inhibition effect compared to prior art miR-22-3p and miR-34a-5p
same,cell growth inhibition effect (cell count),[2],extremely high cell growth inhibition effect compared to prior art miR-22-3p and miR-34a-5p
same,cell growth inhibition effect (cell count),[3],extremely high cell growth inhibition effect compared to prior art miR-22-3p and miR-34a-5p
same,cell growth inhibition effect (cell count),[4],extremely high cell growth inhibition effect compared to prior art miR-22-3p and miR-34a-5p
same,"antitumor effect (tumor suppression, survival rates) compared with cisplatin",[5],equivalent or higher compared to cisplatin
same,"suppression of cell proliferation (cell survival rate, PrestoBlue)",[6],suppress cell proliferation more significantly than miR-34-5p
same,"suppression of cell proliferation (cell survival rate, PrestoBlue)",[7],suppress cell proliferation more significantly than miR-34-5p
same,"suppression of cell proliferation (cell survival rate, PrestoBlue)",[8],suppress cell proliferation more significantly than miR-34-5p
same,"suppression of cell proliferation (cell survival rate, PrestoBlue)",[9],suppress cell proliferation more significantly than miR-34-5p
same,"suppression of cell proliferation (cell survival rate, PrestoBlue)",[10],suppress cell proliferation more significantly than miR-34-5p
